Results as given in ChEMBL document CHEMBL1133231, “Syntheses and binding affinities of 6-nitroquipazine analogues for serotonin transporter. Part 1” (Bioorg Med Chem Lett, 2000).

Target: Sodium-dependent serotonin transporter (Rattus norvegicus, UniProt P31652)
Assay: Inhibition of [3H]citalopram binding to Serotonin transporter of rat cerebral cortex
Format: tissue-based

Sequence of Sodium-dependent serotonin transporter (P31652 whole entry): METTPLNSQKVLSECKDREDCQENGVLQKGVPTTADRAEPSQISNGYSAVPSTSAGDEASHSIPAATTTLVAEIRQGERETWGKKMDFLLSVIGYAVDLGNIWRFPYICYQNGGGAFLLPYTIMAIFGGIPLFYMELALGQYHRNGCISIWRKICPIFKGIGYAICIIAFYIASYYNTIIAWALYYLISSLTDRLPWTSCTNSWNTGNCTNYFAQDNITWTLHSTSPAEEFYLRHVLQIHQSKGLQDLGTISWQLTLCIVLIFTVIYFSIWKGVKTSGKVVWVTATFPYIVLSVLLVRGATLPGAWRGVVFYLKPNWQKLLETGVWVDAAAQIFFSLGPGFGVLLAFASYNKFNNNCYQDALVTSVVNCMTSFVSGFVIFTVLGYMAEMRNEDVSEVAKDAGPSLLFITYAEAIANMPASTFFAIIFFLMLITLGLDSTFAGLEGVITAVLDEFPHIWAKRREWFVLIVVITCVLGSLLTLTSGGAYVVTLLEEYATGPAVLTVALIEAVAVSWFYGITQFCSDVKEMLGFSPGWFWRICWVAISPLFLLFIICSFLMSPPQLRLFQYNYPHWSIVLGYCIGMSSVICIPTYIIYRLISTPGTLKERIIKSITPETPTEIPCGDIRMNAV

Structure (SMILES)	Ki
O=[N+]([O-])c1cc([N+](=O)[O-])c2nc(N3CCNCC3)ccc2c1	313 nM
c1ccc2nc(N3CCNCC3)ccc2c1 [QUIPAZINE]	63 nM
NCCNc1ccc2cc([N+](=O)[O-])ccc2n1	164 nM
